In publication PMC4490784, “Compensatory induction of MYC expression by sustained CDK9 inhibition via a BRD4-dependent mechanism” (eLife, 2015):

Legend:
Experiment in all cases: KINOMEscan binding assay
[1] = biological target: T1, EGFR(L747-E749del, A750P) (Homo sapiens, UniProt P00533, A750P/DEL747-749)
T1 construct: purchased DiscoveRx KINOMEscan
Summary of the method: (§1)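 Active site-directed competition binding measured kinase engagement within a panel of over 400 kinases. i-CDK9 was tested at two concentrations, 1 and 10 µM.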

FLT3(D835Y) = biological target: T2, FLT3(D835Y) (Homo sapiens, UniProt P36888, D835Y); details: read-out: % Retention on Solid Support
T2 construct: purchased DiscoveRx KINOMEscan
Summary of the method: as §1

RIOK1 = biological target: T3, RIOK1 (Homo sapiens, UniProt Q9BRS2); details: read-out: % Retention on Solid Support
T3 construct: purchased DiscoveRx KINOMEscan
T3 sequence (Q9BRS2 whole entry): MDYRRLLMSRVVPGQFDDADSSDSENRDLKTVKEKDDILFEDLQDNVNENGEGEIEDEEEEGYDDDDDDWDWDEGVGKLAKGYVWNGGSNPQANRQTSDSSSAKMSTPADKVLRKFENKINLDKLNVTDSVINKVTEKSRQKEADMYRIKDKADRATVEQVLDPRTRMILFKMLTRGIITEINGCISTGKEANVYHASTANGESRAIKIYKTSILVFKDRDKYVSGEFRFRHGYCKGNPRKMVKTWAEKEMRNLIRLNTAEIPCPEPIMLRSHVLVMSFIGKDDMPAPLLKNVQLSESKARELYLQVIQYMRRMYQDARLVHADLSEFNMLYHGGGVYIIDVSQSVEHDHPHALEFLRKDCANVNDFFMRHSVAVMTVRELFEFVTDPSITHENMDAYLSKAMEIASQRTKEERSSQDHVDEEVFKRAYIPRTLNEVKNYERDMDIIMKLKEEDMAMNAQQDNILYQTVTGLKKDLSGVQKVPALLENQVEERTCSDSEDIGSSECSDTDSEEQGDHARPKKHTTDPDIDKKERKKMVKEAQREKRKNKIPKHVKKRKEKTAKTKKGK
Summary of the method: as §1

EGFR(S752-I759del) = biological target: T4, EGFR(S752-I759del) (Homo sapiens, UniProt P00533, DEL752-759)
T4 construct: purchased DiscoveRx KINOMEscan
Summary of the method: as §1

S6K1 = S6K1 (Homo sapiens, UniProt P23443); details: 1 µM i-CDK9; read-out: % Retention on Solid Support
Summary of the method: as §1

EPHA1 = biological target: T5, EPHA1 (Homo sapiens, UniProt P21709); details: read-out: % Retention on Solid Support
T5 construct: purchased DiscoveRx KINOMEscan
T5 sequence (P21709 26-976): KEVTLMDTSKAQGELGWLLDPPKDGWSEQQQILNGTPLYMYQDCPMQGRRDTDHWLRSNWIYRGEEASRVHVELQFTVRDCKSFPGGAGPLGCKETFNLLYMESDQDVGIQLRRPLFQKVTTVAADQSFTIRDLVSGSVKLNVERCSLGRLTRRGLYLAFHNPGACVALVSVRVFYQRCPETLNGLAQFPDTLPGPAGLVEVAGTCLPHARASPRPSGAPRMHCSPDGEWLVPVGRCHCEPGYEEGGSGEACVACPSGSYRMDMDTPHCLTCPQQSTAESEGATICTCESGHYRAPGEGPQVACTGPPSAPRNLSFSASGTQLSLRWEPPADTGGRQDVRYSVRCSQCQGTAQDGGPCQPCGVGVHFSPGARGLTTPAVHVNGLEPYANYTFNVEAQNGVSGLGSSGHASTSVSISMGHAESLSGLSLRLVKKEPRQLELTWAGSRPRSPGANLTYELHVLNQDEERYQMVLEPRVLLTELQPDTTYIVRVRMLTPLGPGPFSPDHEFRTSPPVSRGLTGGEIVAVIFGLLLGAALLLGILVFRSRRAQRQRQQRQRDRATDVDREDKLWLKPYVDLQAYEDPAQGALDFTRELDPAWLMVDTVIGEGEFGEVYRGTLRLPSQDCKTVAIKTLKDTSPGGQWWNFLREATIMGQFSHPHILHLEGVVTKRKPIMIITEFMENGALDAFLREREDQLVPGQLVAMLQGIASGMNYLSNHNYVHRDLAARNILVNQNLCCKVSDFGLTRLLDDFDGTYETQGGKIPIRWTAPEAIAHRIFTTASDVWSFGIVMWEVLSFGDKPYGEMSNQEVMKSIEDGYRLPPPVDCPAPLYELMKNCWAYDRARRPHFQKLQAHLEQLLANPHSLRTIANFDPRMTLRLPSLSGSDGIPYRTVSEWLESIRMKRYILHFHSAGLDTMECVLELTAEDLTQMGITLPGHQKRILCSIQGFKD
Summary of the method: as §1

EPHA2 = biological target: T6, EPHA2 (Homo sapiens, UniProt P29317); details: read-out: % Retention on Solid Support
T6 construct: purchased DiscoveRx KINOMEscan
T6 sequence (P29317 24-976): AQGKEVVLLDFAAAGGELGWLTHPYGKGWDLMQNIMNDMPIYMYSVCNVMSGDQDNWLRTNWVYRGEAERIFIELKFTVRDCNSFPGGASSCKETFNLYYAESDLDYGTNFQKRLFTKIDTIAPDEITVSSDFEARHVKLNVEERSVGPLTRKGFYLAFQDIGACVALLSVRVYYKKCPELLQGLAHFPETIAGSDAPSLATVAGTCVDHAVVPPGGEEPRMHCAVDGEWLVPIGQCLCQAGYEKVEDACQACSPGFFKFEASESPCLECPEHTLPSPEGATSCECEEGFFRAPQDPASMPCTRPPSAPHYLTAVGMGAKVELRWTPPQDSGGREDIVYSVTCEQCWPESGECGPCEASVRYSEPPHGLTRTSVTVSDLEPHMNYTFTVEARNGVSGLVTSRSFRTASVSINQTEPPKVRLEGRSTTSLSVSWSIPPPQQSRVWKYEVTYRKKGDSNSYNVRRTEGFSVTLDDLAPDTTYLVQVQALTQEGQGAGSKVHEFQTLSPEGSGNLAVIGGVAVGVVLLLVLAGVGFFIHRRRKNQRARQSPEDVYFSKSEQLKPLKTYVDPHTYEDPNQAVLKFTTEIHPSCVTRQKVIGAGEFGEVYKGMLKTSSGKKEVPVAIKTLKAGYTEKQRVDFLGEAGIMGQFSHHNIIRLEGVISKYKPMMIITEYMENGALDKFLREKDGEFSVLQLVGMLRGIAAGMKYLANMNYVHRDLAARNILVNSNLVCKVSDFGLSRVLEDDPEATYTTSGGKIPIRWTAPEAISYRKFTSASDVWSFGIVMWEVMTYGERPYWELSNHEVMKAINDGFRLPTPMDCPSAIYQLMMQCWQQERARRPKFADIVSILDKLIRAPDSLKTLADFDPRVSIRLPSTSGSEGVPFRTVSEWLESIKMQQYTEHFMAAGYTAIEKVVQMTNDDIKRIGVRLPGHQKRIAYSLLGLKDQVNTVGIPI
Summary of the method: as §1

HIPK4 = biological target: T7, HIPK4 (Homo sapiens, UniProt Q8NE63); details: read-out: % Retention on Solid Support
T7 construct: purchased DiscoveRx KINOMEscan
T7 sequence (Q8NE63 whole entry): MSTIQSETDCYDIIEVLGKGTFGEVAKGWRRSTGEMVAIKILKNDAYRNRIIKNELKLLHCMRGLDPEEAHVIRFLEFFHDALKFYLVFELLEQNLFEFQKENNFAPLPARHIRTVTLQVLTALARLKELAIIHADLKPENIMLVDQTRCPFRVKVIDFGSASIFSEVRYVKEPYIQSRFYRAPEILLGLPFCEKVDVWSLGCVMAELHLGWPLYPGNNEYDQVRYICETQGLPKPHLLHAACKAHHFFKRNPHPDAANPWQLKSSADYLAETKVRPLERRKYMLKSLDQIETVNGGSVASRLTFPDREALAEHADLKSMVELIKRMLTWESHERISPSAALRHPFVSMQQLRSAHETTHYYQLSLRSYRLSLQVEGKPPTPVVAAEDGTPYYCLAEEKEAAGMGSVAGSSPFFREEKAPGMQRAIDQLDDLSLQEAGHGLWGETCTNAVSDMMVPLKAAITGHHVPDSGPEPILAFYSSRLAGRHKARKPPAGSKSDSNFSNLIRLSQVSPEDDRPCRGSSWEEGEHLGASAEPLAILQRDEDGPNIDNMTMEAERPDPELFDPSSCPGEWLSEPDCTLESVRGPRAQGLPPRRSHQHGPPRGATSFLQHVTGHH
Summary of the method: as §1

ADCK4 = biological target: T8, ADCK4 (Homo sapiens, UniProt Q96D53); details: read-out: % Retention on Solid Support
T8 construct: purchased DiscoveRx KINOMEscan
T8 sequence (Q96D53 whole entry): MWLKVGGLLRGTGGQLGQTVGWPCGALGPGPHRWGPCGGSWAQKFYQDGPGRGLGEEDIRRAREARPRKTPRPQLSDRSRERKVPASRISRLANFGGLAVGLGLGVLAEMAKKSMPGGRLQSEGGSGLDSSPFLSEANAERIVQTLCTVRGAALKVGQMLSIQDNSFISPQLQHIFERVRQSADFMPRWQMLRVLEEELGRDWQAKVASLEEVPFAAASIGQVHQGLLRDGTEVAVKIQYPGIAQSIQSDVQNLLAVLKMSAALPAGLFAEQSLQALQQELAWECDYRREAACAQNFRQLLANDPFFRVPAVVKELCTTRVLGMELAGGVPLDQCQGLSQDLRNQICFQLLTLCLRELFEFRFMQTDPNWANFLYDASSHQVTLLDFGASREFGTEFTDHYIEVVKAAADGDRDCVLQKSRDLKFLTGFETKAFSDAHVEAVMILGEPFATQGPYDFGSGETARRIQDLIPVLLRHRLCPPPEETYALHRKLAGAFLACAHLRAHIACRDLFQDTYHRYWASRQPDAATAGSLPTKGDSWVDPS
Summary of the method: as §1

IRAK4 = IRAK4 (Homo sapiens, UniProt Q9NWZ3); details: 1 µM i-CDK9
Summary of the method: as §1

[2] = biological target: T9, RSK2(Kin.Dom.1-N-terminal) (Homo sapiens, UniProt P51812); details: read-out: % Retention on Solid Support
T9 construct: RSK2(Kin.Dom.1-N-terminal); purchased DiscoveRx KINOMEscan
T9 sequence (P51812 1-397 limits assumed): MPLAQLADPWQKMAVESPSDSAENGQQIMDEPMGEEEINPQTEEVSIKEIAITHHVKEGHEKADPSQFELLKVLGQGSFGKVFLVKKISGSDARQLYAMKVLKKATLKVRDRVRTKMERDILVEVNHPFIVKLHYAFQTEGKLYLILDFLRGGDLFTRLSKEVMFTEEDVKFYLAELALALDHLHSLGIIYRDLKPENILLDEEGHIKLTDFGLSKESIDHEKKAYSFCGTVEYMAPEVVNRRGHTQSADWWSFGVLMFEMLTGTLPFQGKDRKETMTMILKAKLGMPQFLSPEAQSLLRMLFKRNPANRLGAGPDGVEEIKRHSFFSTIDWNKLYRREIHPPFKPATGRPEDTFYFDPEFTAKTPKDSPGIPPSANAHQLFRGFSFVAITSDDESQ
Summary of the method: as §1

STK33 = biological target: T10, STK33 (Homo sapiens, UniProt Q9BYT3); details: read-out: % Retention on Solid Support
T10 construct: purchased DiscoveRx KINOMEscan
T10 sequence (Q9BYT3 whole entry): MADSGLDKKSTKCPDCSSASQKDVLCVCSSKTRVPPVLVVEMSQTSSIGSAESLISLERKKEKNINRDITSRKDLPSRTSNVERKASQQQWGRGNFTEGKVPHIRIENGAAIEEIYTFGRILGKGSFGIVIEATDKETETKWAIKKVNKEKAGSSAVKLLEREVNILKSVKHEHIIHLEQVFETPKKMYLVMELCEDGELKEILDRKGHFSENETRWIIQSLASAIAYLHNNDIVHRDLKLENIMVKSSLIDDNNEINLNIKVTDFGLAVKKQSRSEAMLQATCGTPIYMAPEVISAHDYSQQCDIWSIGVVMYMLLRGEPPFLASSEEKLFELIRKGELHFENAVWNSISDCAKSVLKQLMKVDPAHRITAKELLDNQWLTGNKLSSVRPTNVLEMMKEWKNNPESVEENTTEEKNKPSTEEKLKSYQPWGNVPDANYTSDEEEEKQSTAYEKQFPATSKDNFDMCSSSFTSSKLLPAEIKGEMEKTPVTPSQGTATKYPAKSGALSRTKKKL
Summary of the method: as §1

ZAP70 = biological target: T11, ZAP70 (Homo sapiens, UniProt P43403); details: read-out: % Retention on Solid Support
T11 construct: purchased DiscoveRx KINOMEscan
T11 sequence (P43403 1-619): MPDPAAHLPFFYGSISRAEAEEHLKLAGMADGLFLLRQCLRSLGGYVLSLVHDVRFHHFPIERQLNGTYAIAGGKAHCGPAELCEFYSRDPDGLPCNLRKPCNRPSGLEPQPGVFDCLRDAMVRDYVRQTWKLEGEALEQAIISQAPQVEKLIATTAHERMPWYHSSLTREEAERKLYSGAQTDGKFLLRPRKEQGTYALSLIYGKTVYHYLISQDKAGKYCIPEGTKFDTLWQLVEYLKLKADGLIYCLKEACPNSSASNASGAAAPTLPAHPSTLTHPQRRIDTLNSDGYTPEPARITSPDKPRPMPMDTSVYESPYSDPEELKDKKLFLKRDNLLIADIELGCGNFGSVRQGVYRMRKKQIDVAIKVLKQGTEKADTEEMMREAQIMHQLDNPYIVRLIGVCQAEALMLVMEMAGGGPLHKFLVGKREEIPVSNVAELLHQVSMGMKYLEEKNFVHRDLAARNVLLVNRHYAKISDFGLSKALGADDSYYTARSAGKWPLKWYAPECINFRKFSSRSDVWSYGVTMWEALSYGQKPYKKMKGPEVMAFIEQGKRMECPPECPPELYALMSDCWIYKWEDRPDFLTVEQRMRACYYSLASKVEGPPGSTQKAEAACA
Summary of the method: as §1

PDPK1 = biological target: T12, PDPK1 (Homo sapiens, UniProt O15530); details: read-out: % Retention on Solid Support
T12 construct: purchased DiscoveRx KINOMEscan
T12 sequence (O15530 1-556): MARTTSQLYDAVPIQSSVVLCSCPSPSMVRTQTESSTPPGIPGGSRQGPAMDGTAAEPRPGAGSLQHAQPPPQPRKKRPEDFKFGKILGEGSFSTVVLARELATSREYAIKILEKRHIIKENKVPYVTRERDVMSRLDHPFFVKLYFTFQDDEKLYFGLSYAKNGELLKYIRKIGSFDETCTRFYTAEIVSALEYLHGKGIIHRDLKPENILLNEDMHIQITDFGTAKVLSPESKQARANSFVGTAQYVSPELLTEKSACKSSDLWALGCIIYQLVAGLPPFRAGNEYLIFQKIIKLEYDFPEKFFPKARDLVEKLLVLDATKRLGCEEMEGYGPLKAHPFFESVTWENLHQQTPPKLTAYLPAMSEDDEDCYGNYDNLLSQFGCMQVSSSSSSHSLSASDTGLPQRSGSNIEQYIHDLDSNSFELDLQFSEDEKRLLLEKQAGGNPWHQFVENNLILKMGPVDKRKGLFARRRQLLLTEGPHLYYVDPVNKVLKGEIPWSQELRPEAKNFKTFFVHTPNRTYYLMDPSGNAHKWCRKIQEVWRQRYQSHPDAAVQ
Summary of the method: as §1

[3] = biological target: RPS6KA4(Kin.Dom.2-C-terminal) (Homo sapiens, UniProt O75676); details: read-out: % Retention on Solid Support
Chain of RPS6KA4(Kin.Dom.2-C-terminal) (O75676 372-772 limits assumed): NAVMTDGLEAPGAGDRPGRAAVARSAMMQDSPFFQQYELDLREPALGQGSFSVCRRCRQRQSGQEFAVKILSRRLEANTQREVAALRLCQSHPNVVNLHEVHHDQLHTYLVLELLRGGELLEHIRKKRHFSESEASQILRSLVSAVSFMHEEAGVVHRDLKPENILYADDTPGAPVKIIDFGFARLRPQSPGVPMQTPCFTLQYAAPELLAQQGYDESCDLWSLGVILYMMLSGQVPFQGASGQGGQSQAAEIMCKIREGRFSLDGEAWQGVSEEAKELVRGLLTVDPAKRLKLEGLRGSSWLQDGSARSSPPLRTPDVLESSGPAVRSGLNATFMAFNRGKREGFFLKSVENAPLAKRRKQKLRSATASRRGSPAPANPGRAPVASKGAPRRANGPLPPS
Summary of the method: as §1

PRKCI = biological target: T13, PRKCI (Homo sapiens, UniProt P41743); details: 1 µM i-CDK9; read-out: % Retention on Solid Support
T13 construct: purchased DiscoveRx KINOMEscan
Summary of the method: as §1

Question: How did the “% Retention on Solid Support” value ([1]; 1 µM i-CDK9) turn out when `N[C@H]1CC[C@H](Nc2cc(-c3cccc(NCc4cccc(F)c4)n3)c(Cl)cn2)CC1` [i-CDK9, N2′-(trans-4-aminocyclohexyl)-5′-chloro-N6-(3-fluorobenzyl)-2,4′-bipyridine-2′,6-diamine] was run?
Answer: 46%

Question: And the “% Retention on Solid Support” value ([1]; 10 µM i-CDK9)?
Answer: 85%

Question: What about the remaining binding at 1 µM (FLT3(D835Y); 1 µM i-CDK9) of the same compound?
Answer: 100%

Question: What about the remaining binding at 10 µM (FLT3(D835Y); 10 µM i-CDK9) of the same compound?
Answer: 68%

Question: What about the remaining binding at 1 µM (RIOK1; 1 µM i-CDK9) of the same compound?
Answer: 100%

Question: And the remaining binding at 10 µM (RIOK1; 10 µM i-CDK9)?
Answer: 57%

Question: What about the “% Retention on Solid Support” value (EGFR(S752-I759del); 1 µM i-CDK9) of the same compound?
Answer: 77%

Question: And the “% Retention on Solid Support” value (EGFR(S752-I759del); 10 µM i-CDK9)?
Answer: 53%

Question: What about the remaining binding at 1 µM (S6K1) of the same compound?
Answer: 100%

Question: What about the remaining binding at 1 µM (EPHA1; 1 µM i-CDK9) of the same compound?
Answer: 99%

Question: And the remaining binding at 10 µM (EPHA1; 10 µM i-CDK9)?
Answer: 100%

Question: And the remaining binding at 1 µM (EPHA2; 1 µM i-CDK9)?
Answer: 100%

Question: And the remaining binding at 10 µM (EPHA2; 10 µM i-CDK9)?
Answer: 100%

Question: And the remaining binding at 1 µM (HIPK4; 1 µM i-CDK9)?
Answer: 40%

Question: What about the remaining binding at 10 µM (HIPK4; 10 µM i-CDK9) of the same compound?
Answer: 3.2%

Question: And the remaining binding at 1 µM (ADCK4; 1 µM i-CDK9)?
Answer: 99%

Question: And the remaining binding at 10 µM (ADCK4; 10 µM i-CDK9)?
Answer: 48%

Question: And the “% Retention on Solid Support” value (IRAK4)?
Answer: 93%

Question: What about the remaining binding at 1 µM ([2]; 1 µM i-CDK9) of the same compound?
Answer: 86%

Question: And the remaining binding at 10 µM ([2]; 10 µM i-CDK9)?
Answer: 76%

Question: What about the remaining binding at 1 µM (STK33; 1 µM i-CDK9) of the same compound?
Answer: 88%

Question: What about the remaining binding at 10 µM (STK33; 10 µM i-CDK9) of the same compound?
Answer: 100%

Question: What about the remaining binding at 1 µM (ZAP70; 1 µM i-CDK9) of the same compound?
Answer: 1.6%

Question: What about the remaining binding at 10 µM (ZAP70; 10 µM i-CDK9) of the same compound?
Answer: 96%

Question: And the remaining binding at 1 µM (PDPK1; 1 µM i-CDK9)?
Answer: 100%

Question: What about the remaining binding at 10 µM (PDPK1; 10 µM i-CDK9) of the same compound?
Answer: 90%

Question: What about the remaining binding at 1 µM ([3]; 1 µM i-CDK9) of the same compound?
Answer: 100%

Question: And the remaining binding at 10 µM ([3]; 10 µM i-CDK9)?
Answer: 74%

Question: And the remaining binding at 1 µM (PRKCI)?
Answer: 100%
